Experimental data taken from patent US11459338B2, “Heterocyclic compounds as PRMT5 inhibitors” (JUBILANT EPISCRIBE LLC, priority 2018, dated 2022).

Experiments:
PRMT5/MEP50 = target: T1, PRMT5/MEP50 (Homo sapiens, UniProt O14744); assay: PRMT5/MEP50 enzyme assay on peptide substrates (3H-SAM Flashplate); format: biochemical; conditions: PRMT5/MEP50 10 nM, H4 1-15aa peptide 100 nM, 3H-SAM 1 μM
T1 construct: Full-length human PRMT5 (NP_006100)
Description: General materials like S-adenocylmethionine (SAM), S-adenosylhomocysteine (SAH), Tris-HCl, DTT, […] (BSA) and Tween-20 were purchased from Sigma-Aldrich. 3H-SAM and 384-well streptavidin Flashplates were purchased from Perkin Elmer. Substrates that were used were Peptide representative of human Histone 4 residues 1-15 which was purchased from Rockland antibodies and assays.
PRMT5/MEP50 Enzyme assay on Peptide Substrates.
The assays were all performed in a buffer consisting of 50 mMTris-HCl, pH 8, 1 mM DTT, 0.01% BSA, 0.01% Tween-20, prepared on the day of use. Test compounds were diluted 3-fold in assay buffer (final DMSO concentration of 1%) and added into a 384-well OptiPlate (PerkinElmer, #6007290). A cocktail (10 μL) of PRMT5/MEP50 enzyme and the peptide was added to the wells. The compounds were allowed to incubate with PRMT5/MEP50 for 30 min at room temperature, then 5 μL of ^3H-SAM was added to initiate the reaction. The final concentrations of the components were as follows: PRMT5/MEP50-10 nM, H4, 1-15aa peptide-100 nM, ^3H-SAM-1 μM. The assays were stopped by the addition of 1 mM SAH. 25 μL of the reaction from the 384-well OptiPlate was then transferred to a 384-well Flashplate and the biotinylated peptides were allowed to bind to the streptavidin surface for at least 1 h, before being washed twice with 50 mMTris-HCl, pH 8, 0.1% Tween-20. The plates were then read in a PerkinElmer Topcount plate reader to measure the quantity of ^3H-labeled peptide bound to the Flashplate surface measured as disintegrations per minute (dpm), also referred to as counts per minute (cpm).
The IC50 values were calculated using a 4-parameter variable slope fit algorithm (cpm—counts per minute, cmpd—signal in assay well, and cpmmax and cpmmin mare the respective minimum and maximum signal controls).

Z-138 cells = assay: Z-138 long term proliferation assay (Cell Titer Glo); format: cell-based; conditions: Homo sapiens, 192 h; Z-138 cells, cell viability, day 8; read-out: PRMT5 Z138 GI50 Day 8 μM
Experimental: A compound source plate was prepared by performing ten-point 3-fold dilution in DMSO, such that the final top concentration of the compound was 10 μM, and DMSO was 0.3%. The total volume of compounds added was 20 μL. The cells were incubated for 96 h at 37° C., 5% CO2. […] The cells were re-treated with the compounds and incubated for an additional four days. Cell viability was measured on both day 4 and day 8, by adding 25 μL of Cell Titer Glo reagent to an equal volume of cell suspension. Luminescence was read on a PerkinElmer Victor3 multiplate reader. The concentration of compound inhibiting cell viability by 50% was determined using a 4-parameter, variable slope fit of the normalized dose response curves.

T1 sequence (O14744 whole entry): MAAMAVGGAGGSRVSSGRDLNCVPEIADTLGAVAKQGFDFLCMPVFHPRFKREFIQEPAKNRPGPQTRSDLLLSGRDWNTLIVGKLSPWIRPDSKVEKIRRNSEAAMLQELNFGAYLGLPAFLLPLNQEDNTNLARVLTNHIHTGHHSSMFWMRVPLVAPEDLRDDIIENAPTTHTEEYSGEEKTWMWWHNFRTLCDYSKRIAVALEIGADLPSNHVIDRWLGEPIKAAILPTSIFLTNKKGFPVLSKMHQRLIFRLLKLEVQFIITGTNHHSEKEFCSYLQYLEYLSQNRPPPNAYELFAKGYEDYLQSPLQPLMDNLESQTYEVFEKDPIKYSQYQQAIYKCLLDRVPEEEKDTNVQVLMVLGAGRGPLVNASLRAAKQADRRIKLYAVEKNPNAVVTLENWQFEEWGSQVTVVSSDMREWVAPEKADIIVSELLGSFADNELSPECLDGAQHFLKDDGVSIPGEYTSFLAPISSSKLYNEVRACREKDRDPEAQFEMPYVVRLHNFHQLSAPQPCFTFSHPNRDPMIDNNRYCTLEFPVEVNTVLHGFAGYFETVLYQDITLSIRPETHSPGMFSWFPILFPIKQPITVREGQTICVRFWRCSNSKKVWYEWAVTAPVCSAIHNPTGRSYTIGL
T1 sequence (Q9BQA1 whole entry partner): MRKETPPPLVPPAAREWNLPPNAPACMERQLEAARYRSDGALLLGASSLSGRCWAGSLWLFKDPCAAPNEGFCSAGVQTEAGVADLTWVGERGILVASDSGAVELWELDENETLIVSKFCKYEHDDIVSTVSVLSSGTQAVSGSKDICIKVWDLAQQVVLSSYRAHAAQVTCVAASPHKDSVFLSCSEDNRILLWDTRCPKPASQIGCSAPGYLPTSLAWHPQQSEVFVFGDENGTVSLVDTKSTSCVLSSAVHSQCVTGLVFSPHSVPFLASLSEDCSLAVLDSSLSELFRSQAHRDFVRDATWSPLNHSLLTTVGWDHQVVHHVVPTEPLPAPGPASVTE

Row | SMILES | IC50 (PRMT5/MEP50) [nM] | GI50 (Z-138 cells) [nM]
1 | CC(=O)N1CCC(C2CCc3nc(C(=O)NC[C@H](O)CN4CCc5ccccc5C4)cn3C2)CC1 (single isomer, unassigned) [Example 118A] | 10 to 1000 | 10 to 1000
2 | O=C(NC[C@H](O)CN1CCc2ccccc2C1)c1cn2cc(-c3cnn(C4COC4)c3)ccc2n1 [Example 22, (S)—N-(3-(3,4-dihydroisoquinolin-2(1H)-yl)-2-hydroxypropyl)-6-(1-(oxetan-3-yl)-1H-pyrazol-4-yl)imidazo[1,2-a]pyridine-2-carboxamide] | 10 to 1000 | 10 to 1000
3 | CC(C)c1nc(-c2ccc3nc(C(=O)NC[C@H](O)CN4CCc5ccccc5C4)cn3c2)no1 [Example 24, (S)—N-(3-(3,4-dihydroisoquinolin-2(1H)-yl)-2-hydroxypropyl)-6-(5-isopropyl-1,2,4-oxadiazol-3-yl)imidazo[1,2-a]pyridine-2-carboxamide] | 10 to 1000 | 10 to 1000
4 | O=C(NC[C@H](O)CN1CCc2ccccc2C1)c1cn2cc(-c3noc(C4CC4)n3)ccc2n1 [Example 25, (S)-6-(5-cyclopropyl-1,2,4-oxadiazol-3-yl)-N-(3-(3,4-dihydroisoquinolin-2(1H)-yl)-2-hydroxypropyl)imidazo[1,2-a]pyridine-2-carboxamide] | 10 to 1000 | 10 to 1000
5 | O=C(NC[C@H](O)CN1CCc2ccccc2C1)c1cn2cc(C3CCOCC3)ccc2n1 [Example 26, (S)—N-(3-(3,4-dihydroisoquinolin-2(1H)-yl)-2-hydroxypropyl)-6-(tetrahydro-2H-pyran-4-yl)imidazo[1,2-a]pyridine-2-carboxamide] | 10 to 1000 | 10 to 1000
6 | CC(=O)N1CCC(c2ccc3nc(C(=O)NC[C@H](O)CN4CCc5ccccc5C4)cn3c2)CC1 [Example 27, (S)-6-(1-acetylpiperidin-4-yl)-N-(3-(3,4-dihydroisoquinolin-2(1H)-yl)-2-hydroxypropyl)imidazo[1,2-a]pyridine-2-carboxamide] | 10 to 1000 | 10 to 1000
7 | Cc1ncc(-c2ccc3nc(C(=O)NC[C@H](O)CN4CCc5ccccc5C4)cn3c2)cn1 [Example 28, (S)—N-(3-(3,4-dihydroisoquinolin-2(1H)-yl)-2-hydroxypropyl)-6-(2-methylpyrimidin-5-yl)imidazo[1,2-a]pyridine-2-carboxamide] | 10 to 1000 | 10 to 1000
8 | Cc1ccc(-c2ccc3nc(C(=O)NC[C@H](O)CN4CCc5ccccc5C4)cn3c2)cn1 [Example 29, (S)—N-(3-(3,4-dihydroisoquinolin-2(1H)-yl)-2-hydroxypropyl)-6-(6-methylpyridin-3-yl)imidazo[1,2-a]pyridine-2-carboxamide] | 10 to 1000 | 10 to 1000
9 | Cc1ccc(-c2ccc3nc(C(=O)NC[C@H](O)CN4CCc5ccccc5C4)cn3c2)nn1 [Example 30, (S)—N-(3-(3,4-dihydroisoquinolin-2(1H)-yl)-2-hydroxypropyl)-6-(6-methylpyridazin-3-yl)imidazo[1,2-a]pyridine-2-carboxamide] | 10 to 1000 | 10 to 1000
10 | Cc1ncc(-c2ccc3nc(C(=O)NC[C@H](O)CN4CCc5ccccc5C4)cn3c2)s1 [Example 31, (S)—N-(3-(3,4-dihydroisoquinolin-2(1H)-yl)-2-hydroxypropyl)-6-(2-methylthiazol-5-yl)imidazo[1,2-a]pyridine-2-carboxamide] | 10 to 1000 | 10 to 1000
11 | Cc1nc(-c2ccc3nc(C(=O)NC[C@H](O)CN4CCc5ccccc5C4)cn3c2)sc1C [Example 32, (S)—N-(3-(3,4-dihydroisoquinolin-2(1H)-yl)-2-hydroxypropyl)-6-(4,5-dimethylthiazol-2-yl)imidazo[1,2-a]pyridine-2-carboxamide] | 10 to 1000 | 10 to 1000
12 | O=C(NC[C@H](O)CN1CCc2ccccc2C1)c1cn2cc(-c3ccc(Cl)cn3)ccc2n1 [Example 33, (S)-6-(5-chloropyridin-2-yl)-N-(3-(3,4-dihydroisoquinolin-2(1H)-yl)-2-hydroxypropyl)imidazo[1,2-a]pyridine-2-carboxamide] | 10 to 1000 | 10 to 1000
13 | Cn1cc(-c2ccc3nc(C(=O)NC[C@H](O)CN4CCc5ccccc5C4)cn3c2)ccc1=O [Example 34, (S)—N-(3-(3,4-dihydroisoquinolin-2(1H)-yl)-2-hydroxypropyl)-6-(1-methyl-6-oxo-1,6-dihydropyridin-3-yl)imidazo[1,2-a]pyridine-2-carboxamide] | 10 to 1000 | 10 to 1000
14 | Cn1ccc(-c2ccc3nc(C(=O)NC[C@H](O)CN4CCc5ccccc5C4)cn3c2)cc1=O [Example 35, (S)—N-(3-(3,4-dihydroisoquinolin-2(1H)-yl)-2-hydroxypropyl)-6-(1-methyl-2-oxo-1,2-dihydropyridin-4-yl)imidazo[1,2-a]pyridine-2-carboxamide] | 10 to 1000 | 10 to 1000
15 | CC(C)n1cc(-c2ccc3nc(C(=O)NC[C@H](O)CN4CCc5ccccc5C4)cn3c2)nn1 [Example 37, (S)—N-(3-(3,4-dihydroisoquinolin-2(1H)-yl)-2-hydroxypropyl)-6-(1-isopropyl-1H-1,2,3-triazol-4-yl)imidazo[1,2-a]pyridine-2-carboxamide] | 10 to 1000 | 10 to 1000
16 | CNC(=O)c1ccc2nc(C(=O)NC[C@H](O)CN3CCc4ccccc4C3)cn2c1 [Example 38, (S)—N2-(3-(3,4-dihydroisoquinolin-2(1H)-yl)-2-hydroxypropyl)-N6-methylimidazo[1,2-a]pyridine-2,6-dicarboxamide] | 10 to 1000 | 10 to 1000
17 | NS(=O)(=O)c1ccc2nc(C(=O)NC[C@H](O)CN3CCc4ccccc4C3)cn2c1 [Example 40, (S)—N-(3-(3,4-dihydroisoquinolin-2(1H)-yl)-2-hydroxypropyl)-6-sulfamoylimidazo[1,2-a]pyridine-2-carboxamide] | 1000 to 5000 | > 5000
18 | Cn1ccc(-c2cnc3nc(C(=O)NC[C@H](O)CN4CCc5ccccc5C4)cn3c2)cc1=O [Example 44, (S)—N-(3-(3,4-dihydroisoquinolin-2(1H)-yl)-2-hydroxypropyl)-6-(1-methyl-2-oxo-1,2-dihydropyridin-4-yl)imidazo[1,2-a]pyrimidine-2-carboxamide] | 10 to 1000 | 10 to 1000
19 | Cn1cc(-c2ccc3nc(C(=O)NC[C@H](O)CN4CCc5ccccc5C4)cn3n2)cn1 [Example 46, (S)—N-(3-(3,4-dihydroisoquinolin-2(1H)-yl)-2-hydroxypropyl)-6-(1-methyl-1H-pyrazol-4-yl)imidazo[1,2-b]pyridazine-2-carboxamide] | 10 to 1000 | 10 to 1000
20 | CC(=O)N1CCC(c2ccc3nc(C(=O)NC[C@H](O)CN4CCc5ccccc5C4)cn3n2)CC1 [Example 49, (S)-6-(1-acetylpiperidin-4-yl)-N-(3-(3,4-dihydroisoquinolin-2(1H)-yl)-2-hydroxypropyl)imidazo[1,2-b]pyridazine-2-carboxamide] | 10 to 1000 | 10 to 1000
21 | O=C(NC[C@H](O)CN1CCc2ccccc2C1)c1cn2nc(C(F)(F)F)ccc2n1 [Example 50, (S)—N-(3-(3,4-dihydroisoquinolin-2(1H)-yl)-2-hydroxypropyl)-6-(trifluoromethyl)imidazo[1,2-b]pyridazine-2-carboxamide] | 1000 to 5000 | 1000 to 5000
